From article PMC5752595 (Molecular cancer therapeutics, 2017)

How the values were obtained:
Assay in all cases: in vitro kinase assay
CAMKK2 = CAMKK2 (Homo sapiens, UniProt Q96RR4); assay type: biochemical
AMPK = assay type: biochemical, Homo sapiens; settings: read-out: Ceritinib
RSK1 = RSK1 (Homo sapiens, UniProt Q15418); assay type: biochemical
FER = FER (Homo sapiens, UniProt P16591); assay type: biochemical
RSK2 = RSK2 (Homo sapiens, UniProt P51812); assay type: biochemical
OSR1 = OSR1 (Homo sapiens, UniProt O95747); assay type: biochemical
Chain of OSR1 (O95747 2-527): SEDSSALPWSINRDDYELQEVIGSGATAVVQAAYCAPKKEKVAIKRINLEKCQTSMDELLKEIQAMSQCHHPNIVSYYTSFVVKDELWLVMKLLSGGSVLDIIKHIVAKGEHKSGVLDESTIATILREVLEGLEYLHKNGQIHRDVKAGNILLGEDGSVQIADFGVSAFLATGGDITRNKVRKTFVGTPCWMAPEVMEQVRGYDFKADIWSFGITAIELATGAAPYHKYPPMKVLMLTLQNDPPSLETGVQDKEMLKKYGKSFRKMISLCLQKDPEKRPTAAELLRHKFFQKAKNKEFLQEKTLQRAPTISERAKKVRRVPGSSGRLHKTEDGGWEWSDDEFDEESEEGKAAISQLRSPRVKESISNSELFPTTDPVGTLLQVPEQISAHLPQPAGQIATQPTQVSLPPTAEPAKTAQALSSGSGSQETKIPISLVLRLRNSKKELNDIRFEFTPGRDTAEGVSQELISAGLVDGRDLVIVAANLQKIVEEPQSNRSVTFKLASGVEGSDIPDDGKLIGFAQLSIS

Chain of FER (P16591 whole entry): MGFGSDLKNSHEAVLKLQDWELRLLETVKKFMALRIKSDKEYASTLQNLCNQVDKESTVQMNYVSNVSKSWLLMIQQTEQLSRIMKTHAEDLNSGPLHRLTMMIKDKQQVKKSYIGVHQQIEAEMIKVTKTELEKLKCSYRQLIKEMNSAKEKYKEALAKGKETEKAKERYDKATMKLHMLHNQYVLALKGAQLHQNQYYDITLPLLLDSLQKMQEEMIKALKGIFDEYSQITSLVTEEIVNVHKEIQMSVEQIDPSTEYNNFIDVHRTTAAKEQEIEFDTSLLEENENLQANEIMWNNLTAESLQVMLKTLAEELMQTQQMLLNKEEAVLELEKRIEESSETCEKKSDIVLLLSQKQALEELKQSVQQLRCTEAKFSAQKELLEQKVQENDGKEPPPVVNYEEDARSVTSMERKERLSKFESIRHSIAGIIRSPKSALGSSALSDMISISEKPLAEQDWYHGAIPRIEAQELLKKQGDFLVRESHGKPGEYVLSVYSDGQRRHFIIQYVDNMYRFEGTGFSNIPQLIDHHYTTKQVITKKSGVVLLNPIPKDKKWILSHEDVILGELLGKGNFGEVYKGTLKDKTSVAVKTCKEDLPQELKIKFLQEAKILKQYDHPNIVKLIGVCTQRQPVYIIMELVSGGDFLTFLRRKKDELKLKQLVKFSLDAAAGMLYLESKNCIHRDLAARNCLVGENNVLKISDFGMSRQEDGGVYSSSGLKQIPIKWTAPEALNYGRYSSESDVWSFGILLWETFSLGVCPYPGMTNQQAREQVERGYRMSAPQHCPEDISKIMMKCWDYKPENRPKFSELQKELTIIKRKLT
Chain of RSK2 (P51812 whole entry): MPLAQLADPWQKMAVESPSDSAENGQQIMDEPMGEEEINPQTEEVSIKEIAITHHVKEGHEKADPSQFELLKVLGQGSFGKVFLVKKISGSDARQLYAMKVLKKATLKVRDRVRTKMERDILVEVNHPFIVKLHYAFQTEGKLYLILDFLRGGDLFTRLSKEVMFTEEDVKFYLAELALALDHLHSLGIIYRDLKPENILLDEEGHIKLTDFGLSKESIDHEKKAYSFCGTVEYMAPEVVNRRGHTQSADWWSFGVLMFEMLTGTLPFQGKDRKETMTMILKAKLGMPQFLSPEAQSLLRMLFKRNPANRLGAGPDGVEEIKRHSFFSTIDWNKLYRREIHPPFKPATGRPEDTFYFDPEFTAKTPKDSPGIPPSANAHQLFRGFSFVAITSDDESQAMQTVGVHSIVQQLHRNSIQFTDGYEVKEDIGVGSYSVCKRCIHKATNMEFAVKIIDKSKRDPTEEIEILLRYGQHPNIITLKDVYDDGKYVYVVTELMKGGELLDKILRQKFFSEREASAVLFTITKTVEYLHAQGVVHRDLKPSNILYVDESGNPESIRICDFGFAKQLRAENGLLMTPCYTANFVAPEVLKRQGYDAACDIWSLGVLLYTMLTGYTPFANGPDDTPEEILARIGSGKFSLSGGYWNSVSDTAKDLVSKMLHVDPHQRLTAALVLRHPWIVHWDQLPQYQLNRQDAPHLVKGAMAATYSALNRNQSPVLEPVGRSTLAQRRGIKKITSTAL
Chain of CAMKK2 (Q96RR4 2-588): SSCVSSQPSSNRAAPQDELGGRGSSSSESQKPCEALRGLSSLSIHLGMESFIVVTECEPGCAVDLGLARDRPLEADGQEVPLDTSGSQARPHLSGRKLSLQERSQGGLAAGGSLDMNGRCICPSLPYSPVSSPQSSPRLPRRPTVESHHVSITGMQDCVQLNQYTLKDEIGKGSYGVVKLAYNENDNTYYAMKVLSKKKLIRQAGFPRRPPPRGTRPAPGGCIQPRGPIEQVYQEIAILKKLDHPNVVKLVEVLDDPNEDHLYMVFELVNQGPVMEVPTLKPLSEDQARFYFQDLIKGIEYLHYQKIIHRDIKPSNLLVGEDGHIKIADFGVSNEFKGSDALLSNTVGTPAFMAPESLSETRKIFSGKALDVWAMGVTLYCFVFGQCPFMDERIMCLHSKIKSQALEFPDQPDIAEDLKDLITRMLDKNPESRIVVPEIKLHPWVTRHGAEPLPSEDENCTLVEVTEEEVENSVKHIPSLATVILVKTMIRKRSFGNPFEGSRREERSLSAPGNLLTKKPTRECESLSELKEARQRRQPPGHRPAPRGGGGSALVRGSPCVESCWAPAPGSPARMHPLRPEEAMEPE
Chain of RSK1 (Q15418 whole entry): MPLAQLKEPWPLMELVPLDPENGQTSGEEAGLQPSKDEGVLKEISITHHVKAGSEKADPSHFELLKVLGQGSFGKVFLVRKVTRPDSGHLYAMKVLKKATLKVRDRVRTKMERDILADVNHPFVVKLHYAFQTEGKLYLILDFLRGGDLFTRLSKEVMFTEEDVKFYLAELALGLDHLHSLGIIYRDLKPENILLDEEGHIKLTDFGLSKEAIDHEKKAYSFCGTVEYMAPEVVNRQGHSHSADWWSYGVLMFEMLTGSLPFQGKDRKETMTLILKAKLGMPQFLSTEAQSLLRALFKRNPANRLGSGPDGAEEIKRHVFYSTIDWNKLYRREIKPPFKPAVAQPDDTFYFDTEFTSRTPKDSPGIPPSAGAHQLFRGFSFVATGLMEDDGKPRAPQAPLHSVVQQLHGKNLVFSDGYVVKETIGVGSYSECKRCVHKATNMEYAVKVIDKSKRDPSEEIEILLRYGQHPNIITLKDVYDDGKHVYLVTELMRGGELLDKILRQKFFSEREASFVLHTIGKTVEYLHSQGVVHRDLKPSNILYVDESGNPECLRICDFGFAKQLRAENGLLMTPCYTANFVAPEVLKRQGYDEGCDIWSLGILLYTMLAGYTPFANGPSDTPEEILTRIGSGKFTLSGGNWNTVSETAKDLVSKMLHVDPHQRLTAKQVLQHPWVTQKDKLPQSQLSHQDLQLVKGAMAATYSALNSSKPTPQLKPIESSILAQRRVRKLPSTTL

Cc1cc(Nc2ncc(Cl)c(Nc3ccccc3S(=O)(=O)C(C)C)n2)c(OC(C)C)cc1C1CCNCC1 [ceritinib]
IC50 (CAMKK2): 75.3 nM
IC50 (AMPK): 2360 nM
IC50 (RSK1): 966 nM
IC50 (FER): 11.7 nM
IC50 (RSK2): 418 nM
IC50 (OSR1): 881 nM
